# Measurements reported in article PMC6470603, “Design and Synthesis of Matrine Derivatives as Novel Anti-Pulmonary Fibrotic Agents via Repression of the TGFβ/Smad Pathway” (Molecules, 2019).
# Key:
# [1] = test system: TGF-β receptor type I (TGFβRI) in MRC-5 cells; test: Immunofluorescence assay, TGFβRI expression; assay type: cell-based, human; conditions: 10 μM, 48 h, 10 ng/mL TGF-β1, mean fluorescence intensity
# Text: Another emerging effect of Smad which acts as the amplifier of TGF-β signaling also contribute to fibrotic diseases. The nuclear translocation of Smad3 leads to the activation of the miR-433 promotor region. miR-433 promotes the decrease of antizyme inhibitor I (Azin1) and eventually results in depletion of polyamine, which causes the upregulation of expression level of TGF-β receptor type I (TGFβRI) and TGF-β1. This series of signaling creates a positive-feedback loop which amplify the TGFβ signaling.
# (§1) MRC-5 cells were seeded on 0.2% gelatin-coated glass coverslips and treated with or without 10 ng/mL TGF-β1 in the presence of vehicle or 10 μM 3f for 48 h. The cells were washed with PBS and fixed in freshly prepared 4% paraformaldehyde (PFA) at room temperature for 10 min. The cells were then permeabilized with 0.25% Triton X-100 for 10 min before 30 min of blocking by PBS solution supplemented with 1% BSA and 22.5 mg/mL glycine (the permeabilization was omitted for S100A4 and TGFβRI staining). The cells were incubated with primary antibody overnight at 4 °C and labeled with AlexaFluor 488-conjugated or Dylight 488-conjugated secondary antibody. […] The mean fluorescence intensity (MFI) of each photo was calculated by ImageJ. […]
# [2] = Cytotoxicity assay (CCK-8); conditions: human, MRC-5 cells (human fetal lung fibroblasts)
# Procedure: (§4) Cytotoxicity of all compounds were also determined against MRC-5 cells, so as to calculate selectivity index (SI, CC50/IC50).
# (§5) MRC-5 cells in passage between 21 to 26 were used for experiments.
# (§6) MRC-5 cells were incubated with different concentrations of compounds for 48 h, and then 10 μL of CCK-8 solution were added to each well. The cells were incubated at 37 °C for another 3 h before determining the OD values at 492 nm. DMSO at 0.1% v/v final concentration was used to solubilize the test compounds, except for compound 3b, 3c, and 3e, where 1% v/v DMSO was used to ensure complete solubilization.
# [3] = test system: TGF-β1 induced total collagen accumulation in MRC-5 cells; test: Sircol collagen assay: inhibition of TGF-β1-induced total collagen accumulation; assay type: cell-based, human; conditions: for IC50: Homo sapiens, MRC5, 10 ng/mL TGF-β1, 48 h, Sircol collagen assay; for SI, selectivity index (SI = CC50/IC50): MRC-5 cells
# Procedure: Higher SI values indicates better safety profile.
# MRC-5 cells in 1 × 10^5 cells/mL density were seeded in TC treated 96-well plates and allowed to reach confluence for 48 h. The cells were then starved using MEM-NEAA containing 0.2% BSA for 24 h. After starvation, the medium was changed to MEM-NEAA supplemented with 0.2% BSA, 100 μM L-Proline, 100 μM Ascorbic acid, with or without 10 ng/mL TGF-β1 (Peprotech) in the presence of vehicle or different concentrations of compounds. After 48 h incubation, the MRC-5 cells were washed with phosphate buffered saline (PBS) and fixed in −20 °C precooled methanol for 10 min. The cells were than washed with PBS before incubation in 0.1% PSR staining solution (0.1% Sirus red in saturated water solution of picric acid) for 1 h. The staining solution was then removed and the cells were washed with 0.1% acetic acid for three times. 200 μL of 0.1 mol/L sodium hydroxide solution were added to each well and the plates were placed on a rocking platform for 1 h. The optical density (OD) values at 550 nm were determined with an Infinite 2000 spectrophotometer.
# MRC-5 fibroblasts = test: Scratch (wound healing) assay, TGF-β1-induced fibroblast migration; assay type: cell-based, human; conditions: 10 μM, 10 ng/mL TGF-β1, 24 h (TGF-β1 alone 85.0%)
# Procedure: Fibroblast migration is the key event in pulmonary fibrogenesis. […] Inhibition of lung fibroblasts migration is a promising potential therapeutic target for IPF. We performed wound healing assay to investigate the inhibitory effect of 3f and matrine against fibroblast migration (Figure 7).
# MRC-5 cells were seeded on 6-well plates and allowed to reach confluence for 48 h. The cell monolayer was gently scratched with a 1 mL pipette tip across the center of the well. After scratching, the cells were washed twice with medium to remove detached cells. The cells were then treated with or without 10 ng/mL TGF-β1 in the presence of vehicle or 10 μM 3f for 24 h. The gap area in wound region was quantitatively evaluated using ImageJ [30] and MRI wound healing tool plugin [31].
# Smad2/3 in MRC-5 cells = test: Immunofluorescence assay, cellular localization of Smad2/3; assay type: cell-based, human; conditions: 10 μM, 48 h, 10 ng/mL TGF-β1
# Text: Small mothers against decapentaplegic homologs (Smad) are key mediators and regulators of TGFβ signaling. The binding of TGF-β1 to TGFβ receptors leads to the phosphorylation of Smad2/3 complex, which then translocate into nucleus to enhance gene transcription by cooperating with DNA transcription factors. Inhibition of the nuclear translocation of Smad2/3 could attenuate the transcription of profibrotic genes such as collagens and α-SMA. Therefore, we investigated the cellular localization of Smad2/3 by immunofluorescence assay. As depicted in Figure 6A, Smad2/3 predominately localize in cytoplasm under normal conditions, but translocate into nucleus upon TGF-β1 stimulation.
# as §1, with “staining).” for “staining). The cells were incubated with primary antibody overnight at 4 °C and labeled with AlexaFluor 488-conjugated or Dylight 488-conjugated secondary antibody.”
# [4] = test system: fibronectin in MRC-5 cells; test: Immunofluorescence assay, fibronectin expression; assay type: cell-based, human; conditions: 10 μM, 48 h, 10 ng/mL TGF-β1, mean fluorescence intensity
# Procedure: Next, we evaluated the inhibitory effect of 3f against fibronectin expression. Fibronectin is another major constituent of ECM and plays a critical role in fibrogenesis by promoting the migration, proliferation, and adhesion of fibroblasts.
# as §1
# [5] = test system: alpha-smooth muscle actin (α-SMA) in MRC-5 cells; test: Immunofluorescence assay, α-SMA expression (fibroblast-to-myofibroblast transition); assay type: cell-based, human; conditions: 10 μM, 48 h, 10 ng/mL TGF-β1, mean fluorescence intensity
# Text: (§2) Myofibroblasts, a further differentiated subset of fibroblasts, are primary effector cells for collagen synthesis in fibrotic disorders. Inhibition of fibroblast differentiation is an important therapeutic target for IPF treatment. To examine whether 3f could inhibit TGF-β1-induced fibroblast-to-myofibroblast transition, we investigated the expression level of alpha-smooth muscle actin (α-SMA) and S100A4, the key markers which distinguish myofibroblasts from their precursor fibroblasts. We observed dramatic upregulation of myofibroblast markers in response to TGF-β1 stimulation (774.9% and 537.7% for α-SMA and S100A4, respectively), characterizing a strong expression of myofibroblast phenotype.
# as §1, with “staining).” for “staining). The cells were incubated with primary antibody overnight at 4 °C and labeled with AlexaFluor 488-conjugated or Dylight 488-conjugated secondary antibody.”
# S100A4 in MRC-5 cells = test: Immunofluorescence assay, S100A4 expression (fibroblast-to-myofibroblast transition); assay type: cell-based, human; conditions: 10 μM, 48 h, 10 ng/mL TGF-β1, mean fluorescence intensity
# Text: as §2
# as §1, with “staining).” for “staining). The cells were incubated with primary antibody overnight at 4 °C and labeled with AlexaFluor 488-conjugated or Dylight 488-conjugated secondary antibody.”
# [6] = test system: Collagen type III alpha-1 chain (COL3A1) in MRC-5 cells; test: Immunofluorescence assay, COL3A1 expression; assay type: cell-based, human; conditions: 10 μM, 48 h, 10 ng/mL TGF-β1, mean fluorescence intensity
# Procedure: (§3) Due to the significance of collagen in IPF pathogenesis, we first evaluated the inhibitory effect of key compound 3f against collagen accumulation. Immunofluorescence staining was employed to investigate collagen protein expression.
# as §1
# [7] = test system: Collagen type I alpha-1 chain (COL1A1) in MRC-5 cells; test: Immunofluorescence assay, COL1A1 expression; assay type: cell-based, human; conditions: 10 μM, 48 h, 10 ng/mL TGF-β1, mean fluorescence intensity
# Procedure: as §3, §1
# in vitro = conditions: human
# Procedure: as §4, §5, §6
Structure (SMILES),reduction of TGF-β1-induced upregulation of TGFβRI expression level [1] [%],CC50 at 48 h [2] [µM],IC50 [3] [µM],"SI, selectivity index (SI = CC50/IC50) [3]",closure of wound area over 24 h period (MRC-5 fibroblasts) [%],effect on cytoplasm-to-nuclear translocation of Smad2/3 (Smad2/3 in MRC-5 cells),reduction of expression level of fibronectin comparing to TGF-β1 stimulation group [4] [%],downregulation in expression level of α-SMA compared to TGF-β1 stimulation group [5] [%],downregulation in expression level of S100A4 compared to TGF-β1 stimulation group (S100A4 in MRC-5 cells) [%],decrease in expression level of COL3A1 relative to TGF-β1 stimulation group [6] [%],decrease in expression level of COL1A1 relative to TGF-β1 stimulation group [7] [%],CC50 at 48 h (in vitro) [µM]
"O=C1CC(n2ccc3cc(Cl)ccc32)CC2C3CCCN4CCCC(CN12)C34 (centres unmarked) [3f, 13-(5-chloro-1H-indol-1-yl)-matrine]",46.7,26.7 ± 0.7,3.3 ± 0.3,8.0,37.7,significantly inhibit the cytoplasm-to-nuclear translocation of Smad2/3,40.0,45.8,17.7,31.1,46.2,
"O=C1C=CC[C@@H]2[C@H]3CCCN4CCC[C@@H](CN12)[C@@H]34 [Sophocarpine, reference compound]",,,1190 ± 135,2.7,,,,,,,,3160 ± 355
